Data: patent US20260344621A1, “CHEMICAL DISBUDDING METHOD” (WELFARE CONCEPTS LIMITED, priority 2022, published 2026)
Entries after “also recorded” stand apart in the source; their conditions may differ. Counter-ions that a name gives are not always drawn. Each block holds one molecule with its values, some of them ahead of it.

Legend:
horn buds [1] = experiment: General conclusion on chemical disbudding agents: efficacy; type: in vivo, calves
Description: (§1) A study was performed to test the disbudding efficacy from the administration to horn buds of mepacrine dihydrochloride, compared to a conventional hot iron disbudding method. The mepacrine dihydrochloride was administered as compositions comprising mepacrine dihydrochloride suspended in water. The compositions were prepared by dispersing mepacrine dihydrochloride powder into water for injection. Immediately before administration the compositions were shaken to re-suspend the mepacrine dihydrochloride.
(§2) A study on calves was performed to test the disbudding efficacy from the administration to horn buds of chloroquine diphosphate and polidocanol.
(§3) Sixteen calves (4 to 6 days old) obtained from commercial dairy farms were used in this study. The calves were randomly assigned to receive one of the four formulations (Table 3). Animals were gently restrained and the hair around the horn bud region was clipped. The formulations (0.3 to 0.5 mL) were then injected subcutaneously under the right horn bud or around the right horn bud using a McLintock syringe and needle (22G 11/64″, 0.71*4.3 mm) which delivered 0.1 mL on each injection. The left horn bud acted as control. The details of the treatment are given in the below Table 3. […] The differences in the growth rate of the right and left horn buds were determined by measuring the height of the horn buds at regular intervals. Photos of the horn buds were taken at the same time. Calves will be euthanized after 4 months by intravenous injection of pentobarbitone sodium (100 mg/kg bodyweight) for gross pathology and histopathology of horn buds.

horn buds [2] = experiment: Example 2: disbudding efficacy of chloroquine diphosphate and polidocanol, 90 days observation; type: in vivo, calves; conditions: for Horn growth / Scurs / Success rate / No horn growth: 90 days
Description: as §2
The chloroquine diphosphate was administered as compositions comprising chloroquine diphosphate suspended in water. The compositions were prepared by dispersing chloroquine diphosphate powder into water for injection. Immediately before administration the compositions were shaken to re-suspend the chloroquine diphosphate.
(§4) The polidocanol was administered either as undiluted polidocanol when administered at 100% concentration, or as a diluted solution with water for the 90%, 50% and 10% concentration groups.
The animals in the study were divided into multiple groups. Groups 1 and 2 were administered saline solution (0.9% sodium chloride) administered as a single dose for group 1, and as divided doses for group 2. Each divided dose comprised 5 doses of 0.1 mL administered around the horn bud.
Groups 3 and 4 were administered chloroquine diphosphate at either 100 mg/ml or 300 mg/mL, and groups 5 to 8 were administered polidocanol are different concentrations ranging from 100% to 10% w/v.

[3] = Example 3: pain related behaviors and adverse effects following injection; type: in vivo, calves (4 to 6 days old)
Description: as §3

horn-bud tissue = conditions: injected under the horn bud; Sutherland et al 2019; cited from earlier work
horn buds [4] = experiment: Example 3: growth rate of horn buds / efficacy of mepacrine and eugenol formulations; type: in vivo, calves (4 to 6 days old); conditions: for Height of right horn bud on 40th day / Height of right horn bud on 80th day / Horn growth rate (height of horn buds on 80th day minus height on 40th day), right horn bud: individual calf
Description: as §3, with “The formulations (0.3 to 0.5 mL) were then injected subcutaneously under the right horn bud or around the right horn bud using a McLintock syringe and needle (22G 11/64″, 0.71*4.3 mm) which delivered 0.1 mL on each injection.” left out

horn buds [5] = experiment: Example 1: disbudding efficacy of mepacrine dihydrochloride suspended in water, 90 days observation; type: in vivo, calves (bovine dairy calves, 7 days of age); conditions: for Horn growth / Scurs / Success rate / No horn growth: 10 animals treated, 90 days
Description: as §1
The animals in the study (calves) were divided into multiple groups. Groups 1 to 4 were administered a single dose of 0.5 mL of mepacrine dihydrochloride composition, with each being administered a composition with a different concentration of mepacrine dihydrochloride, ranging from 50 mg/mL to 400 mg/mL.
Groups 5 to 8 were administered a divided dose of 0.5 mL of mepacrine dihydrochloride composition, with each being administered a composition with a different concentration of mepacrine dihydrochloride, ranging from 50 mg/mL to 400 mg/mL. Each divided dose comprised 5 doses of 0.1 mL administered around the horn bud.
(§5) The administration of the mepacrine dihydrochloride was performed by injecting the mepacrine dihydrochloride composition using a McLintock pre-set syringe configured to administer up to 0.5 mL. The single dose administration for groups 1 to 4 was performed by injecting the composition directly into the horn bud. The divided dose administration for groups 5 to 8 was performed by injecting the smaller doses to the area immediately around the horn bud. The animals in control group 9 were first treated with a 2% lignocaine injection as a cornual nerve block and then disbudded using a conventional hot-iron.
The left horn bud on each animal was left untreated as a control.
(§6) The animals in the study were bovine dairy calves, progressively enrolled in the study and treated at 7 days of age.
The success rate is based on the proportion of treated horn buds that had no subsequent horn growth or presence of a scur. A horn scur is a distorted horn that is not attached to the skull. […] The untreated horn bud on every animal developed into a horn.

[6] = Example 1: pain response and procedure time; type: in vivo, calves (bovine dairy calves, 7 days of age)
Description: as §1, §5, §6
The administration procedure of disbudding by administering mepacrine was less than 1 minute for each animal, compared to 5-10 minutes for the animals disbudded with the hot-iron.

horn bud = conditions: high concentrations injected into the horn bud; Koger 1976; cited from earlier work
[7] = prior trials; cited from earlier work
[8] = Example 2: viscosity of the polidocanol compositions (observation); type: physicochemical; conditions: eg. 90%
Description: as §4

horn bud tissue = conditions: as a cryogenic fluid; cited from earlier work
[9] = 100 mg/mL, single injection (0.5 mL), 3 animals treated
[10] = 300 mg/ml, single injection (0.5 mL), 4 animals treated
[11] = 50 mg/mL, multiple injections (5 × 0.1 mL)
[12] = 50 mg/mL, single injection (0.5 mL)
[13] = 100 mg/mL, multiple injections (5 × 0.1 mL)
[14] = 100 mg/mL, single injection (0.5 mL)
[15] = 200 mg/mL, multiple injections (5 × 0.1 mL)
[16] = 200 mg/mL, single injection (0.5 mL)
[17] = 400 mg/mL, multiple injections (5 × 0.1 mL)
[18] = 400 mg/mL, single injection (0.5 mL)
[19] = 50% polidocanol (0.5 mL), 4 animals treated
[20] = 90% polidocanol (0.5 mL), 4 animals treated
[21] = 100% polidocanol (0.5 mL), 1 animal treated

Molecule: CCN(CC)CCCC(C)Nc1ccnc2cc(Cl)ccc12 (stereo not drawn) [Chloroquine diphosphate]
Function as chemical disbudding agents (horn buds [1]): effective chemical disbudding agents | Horn growth (horn buds [2]; [9]): 2 | Scurs (horn buds [2]; [9]): 1 | Success rate (horn buds [2]; [9]): 0% | Disbudding success (in words) (horn buds [2]; 300 mg/mL): some success | Horn growth outcome (in words) (horn buds [2]; 300 mg/mL): half the animals having no horn growth at all, and the other have having only scurs forming | No horn growth (horn buds [2]; [10]): 2 | Scurs (horn buds [2]; [10]): 2 | Success rate (horn buds [2]; [10]): 50%

Molecule: C=CCc1ccc(O)c(OC)c1 [Eugenol]
Character and course of the swelling ([3]; following the injection): painless to touch and resolved after few days | Swelling around the horn buds ([3]; following the injection): Swelling around the horn buds was observed; also recorded: Painless swelling at site of injection | Swelling and scars at the site of injection ([3]; main finding 4): slight swelling and scars at the site of injection | Scars and depression at the site of injection ([3]; site of injection): scars and depression were seen at the site of injection | Disbudding efficacy (horn-bud tissue): relatively ineffective, delaying rather preventing horn growth in many cases | Height of right horn bud on 40th day (horn buds [4]; 0.2 mL under the horn bud): (5-5) mm | Height of right horn bud on 80th day (horn buds [4]; 0.2 mL under the horn bud): (5-5) mm | Horn growth rate (height of horn buds on 80th day minus height on 40th day), right horn bud (horn buds [4]; 0.2 mL under the horn bud): 0 mm | Height of right horn bud on 40th day (horn buds [4]; 0.3 mL under the horn bud): (8-8) mm | Height of right horn bud on 80th day (horn buds [4]; 0.3 mL under the horn bud): (8-8) mm | Horn growth rate (height of horn buds on 80th day minus height on 40th day), right horn bud (horn buds [4]; 0.3 mL under the horn bud): 0 mm | Height of right horn bud on 40th day (horn buds [4]; 0.4 mL around the horn bud): 17 mm | Height of right horn bud on 80th day (horn buds [4]; 0.4 mL around the horn bud): 19 mm | Horn growth rate (height of horn buds on 80th day minus height on 40th day), right horn bud (horn buds [4]; 0.4 mL around the horn bud): 2mm | Height of right horn bud on 40th day (horn buds [4]; 0.5 mL around the horn bud): 8 mm | Height of right horn bud on 80th day (horn buds [4]; 0.5 mL around the horn bud): 10 mm | Horn growth rate (height of horn buds on 80th day minus height on 40th day), right horn bud (horn buds [4]; 0.5 mL around the horn bud): 2 mm | Height of right horn bud on 40th day (horn buds [4]; 0.5 mL under the horn bud): 14 mm | Height of right horn bud on 80th day (horn buds [4]; 0.5 mL under the horn bud): 22 mm | Horn growth rate (height of horn buds on 80th day minus height on 40th day), right horn bud (horn buds [4]; 0.5 mL under the horn bud): 8 mm | Effective (number of animals), subjective assessment of efficacy (horn buds [4]; N = 5 (aqueous mepacrine), 5 (eugenol), 2 (20:80), 3 (80:20)): 3 | Ineffective (number of animals), subjective assessment of efficacy (horn buds [4]; N = 5 (aqueous mepacrine; around the horn bud), 5 (eugenol), 3 (80:20; around the horn bud)): 2 | Ineffective, of these around the horn bud (number of animals) (horn buds [4]; eugenol, N = 5, around the horn bud): 1

Pain response ([6]; after mepacrine disbudding treatment): very little pain response
Molecule: CCN(CC)CCCC(C)Nc1c2ccc(Cl)cc2nc2ccc(OC)cc12 (stereo not drawn) [Mepacrine dihydrochloride]
Horn growth (horn buds [5]; [11]): 9 | Scurs (horn buds [5]; [11]): 1 | Success rate (horn buds [5]; [11]): 0% | Horn growth (horn buds [5]; [12]): 7 | No horn growth (horn buds [5]; [12]): 3 | Success rate (horn buds [5]; [12]): 30% | Horn growth (horn buds [5]; [13]): 2 | No horn growth (horn buds [5]; [13]): 5 | Scurs (horn buds [5]; [13]): 3 | Success rate (horn buds [5]; [13]): 50% | Horn growth (horn buds [5]; [14]): 7 | No horn growth (horn buds [5]; [14]): 3 | Success rate (horn buds [5]; [14]): 30% | No horn growth (horn buds [5]; [15]): 9 | Scurs (horn buds [5]; [15]): 1 | Success rate (horn buds [5]; [15]): 90% | Horn growth (horn buds [5]; [16]): 1 | No horn growth (horn buds [5]; [16]): 8 | Scurs (horn buds [5]; [16]): 1 | Success rate (horn buds [5]; [16]): 80% | Horn growth (horn buds [5]; [17]): 1 | No horn growth (horn buds [5]; [17]): 7 | Scurs (horn buds [5]; [17]): 2 | Success rate (horn buds [5]; [17]): 70% | No horn growth (horn buds [5]; [18]): 8 | Scurs (horn buds [5]; [18]): 2 | Success rate (horn buds [5]; [18]): 80% | Success rate (in words) (horn buds [5]; 0.5 mL of 200 mg/mL and 400 mg/L (so in the source), single injection and divided dose): high success rates | Success rate by concentration (in words) (horn buds [5]; 200 and 400 mg/mL vs 50 and 100 mg/mL): higher success rate in the higher concentration groups of 200 and 400 mg/mL | Advantage of splitting the dose into multiple injections (horn buds [5]; single vs multiple injections): no noticeable advantage | Function as chemical disbudding agents (horn buds [1]): effective chemical disbudding agents | Discomfort and pain reactions/behaviour ([6]; during administration): very little discomfort during administration and showed no pain reactions/behaviour | Discomfort / pain activity during and after injections ([6]; during injections and after completion): discomfort during the injections and no subsequent pain activity after completion of the injections

Molecule: [Ca+2].[Cl-].[Cl-] [calcium chloride]
Inflammation (horn bud): significant inflammation | Necrosis of the tissue (horn bud): causing necrosis of the tissue

Molecule: [Na+].[OH-] [caustic soda]
Adverse effects [7]: can lead to blindness of the treated animals

Viscosity of the higher concentration compositions [8]: highly viscous
Molecule: Polidocanol
Function as chemical disbudding agents (horn buds [1]): effective chemical disbudding agents | No horn growth (horn buds [2]; 10% polidocanol (0.5 mL), 1 animal treated): 1 | Horn growth (horn buds [2]; [19]): 3 | Scurs (horn buds [2]; [19]): 1 | Success rate (horn buds [2]; [19]): 0% | Horn growth (horn buds [2]; [20]): 1 | No horn growth (horn buds [2]; [20]): 1 | Scurs (horn buds [2]; [20]): 2 | Success rate (horn buds [2]; [20]): 25% | Disbudding success (in words) (horn buds [2]; 100% concentration and 10% concentration): successful | No horn growth (horn buds [2]; [21]): 1 | Success rate (horn buds [2]; [21]): 100% | Disbudding success (in words) (horn buds [2]; other concentrations (90%, 50%)): less successful

Molecule: liquid nitrogen
Destruction of horn bud tissue (horn bud tissue): almost entirely ineffective
